Earlier results in US20020006908A1, “ANTICONVULSANT DERIVATIVES USEFUL IN TREATING SCHIZOPHRENIA” (priority 1998, published 2002).

Legend:
human epilepsy = settings: adjunctive therapy or monotherapy, clinical trials of human epilepsy
[1] = tested on: rodent models of epilepsy; settings: several rodent models of epilepsy
[2] = tested on: animal model of kindled epilepsy

- effect on glutamate receptor activity (glutamate receptor): reduced glutamate receptor activity
SMILES: CC1(C)O[C@@H]2[C@@H](CO[C@@]3(COS(N)(=O)=O)OC(C)(C)O[C@@H]23)O1 [topiramate, 2,3:4,5-bis-O-(1-methylethylidene)-β-D-fructopyranose sulfamate]
- efficacy in treating simple and complex partial seizures and secondarily generalized seizures (human epilepsy): effective
- seizure block [1]: effectively block seizures
- seizure block [2]: effectively block seizures
- effect on brain GABA activity (brain GABA activity): enhancement of brain GABA activity
